From paper PMC10681895, “Dasatinib anhydrate containing oral formulation improves variability and bioavailability in humans” (Leukemia, 2023)
Like-named read-outs stand apart in the source and are kept apart here.

Assays:
[1] = Bioavailability of anhydrous vs monohydrate form of dasatinib by gastric pH (data on file); type: in vivo, human
[2] = Intrinsic dissolution rate, rotation disk (Sirius inForm), acetate/phosphate buffer pH 4.5; details: for intrinsic dissolution rate: acetate buffer pH 4.5, 37 °C, 100 rpm
[3] = Drug-drug interaction study with omeprazole (staggered approach), pharmacokinetics; details: human, plasma, oral
Procedure: The DDI study was a single-sequence, 2-period, open-label study to investigate the effects of an oral proton pump inhibitor (PPI) omeprazole (Helicid 40 mg capsules, Zentiva, k.s., Czech Republic) administered QD for 5 days on the pharmacokinetics (PK) of T when ingested 2 h prior to the last omeprazole dose (‘staggered approach’). All subjects received T alone in the first period and T under pre-treatment with omeprazole in the second period.
Subjects fasted for at least 10 h prior to dosing and no food was provided until 4 h after the dose, after which a standardized breakfast was served. […]
The plasma concentration-time profiles and pharmacokinetic parameters determined for dasatinib included maximum plasma concentration (Cmax), time to reach the maximum plasma concentration (Tmax), area under the plasma concentration-time curve from time zero to the time of the last quantifiable concentration (AUC0-t, measured by linear trapezoid method), AUC from time zero to infinity (AUC0-inf), terminal elimination half-life (thalf). The pharmacokinetic parameters were determined by non-compartmental methods using Phoenix WinNonlin, version 8.1 (Certara, USA).
Arithmetic mean and standard deviation were summarized for the main pharmacokinetic parameters. For Tmax, median and range were determined. […]

[4] = design: method as in PMID 19395585; details: cited from earlier work
[5] = cited from earlier work
[6] = Safety and tolerability, drug-drug interaction study (adverse events, CTC grade); type: in vivo, human; details: after dasatinib alone
Procedure: Safety was evaluated through assessment of adverse events, clinical and laboratory test results, physical examination, and concomitant medication usage.

[7] = system: non-small-cell lung carcinoma; design: method as in PMID 25246385; details: cited from earlier work
[8] = design: method as in PMID 15032311, PMID 15568890; details: oral; cited from earlier work
[9] = without PPI or H2-receptor antagonists

Structure (SMILES): Cc1nc(Nc2ncc(C(=O)Nc3c(C)cccc3Cl)s2)cc(N2CCN(CCO)CC2)n1 [dasatinib anhydrate, dasatinib]
- increase of bioavailability compared with monohydrate form ([1]; normogastric population): approximately 20%
- fold higher bioavailability compared with monohydrate form ([1]; subjects with gastric pH >4 (data on file)): about 3.5 fold
- fold higher intrinsic dissolution rate compared to monohydrate form ([2]; acetate buffer pH 4.5): more than 80 fold
- intrinsic dissolution rate ([2]; listed as Anhydrous polymorph of dasatinib): 1606 mcg/min/cm^2
- fold difference in aqueous solubility compared with monohydrate form ([2]; pH of 4.5): > 80 fold
- Tmax [3]: 1.25 h
- Tmax ([3]; 110.6 mg): 0.83 h

Structure (SMILES): Cc1nc(Nc2ncc(C(=O)Nc3c(C)cccc3Cl)s2)cc(N2CCN(CCO)CC2)n1 [dasatinib monohydrate, dasatinib]
- solubility ([4]; pH 2.6): 18400 µg/mL
- solubility ([4]; pH 4.28): 205 µg/mL
- solubility ([4]; pH 6.99): < 1 µg/mL
- intrinsic dissolution rate ([2]; listed as monohydrate form): 19 mcg/min/cm^2

Structure (SMILES): Cc1nc(Nc2ncc(C(=O)Nc3c(C)cccc3Cl)s2)cc(N2CCN(CCO)CC2)n1 [dasatinib]
- decrease of AUC ([5]; co-administration of dexamethasone, according to the label): approximately 25%
- AUC decrease ([5]; co-administration with antacids): ~ 55%
- prevention of dasatinib AUC decrease induced by rabeprazole ([5]; co-administration with betaine hydrochloride): 78%
- AUC decrease ([5]; co-administration with famotidine): ~ 60%
- reduction in dasatinib bioavailability ([5]; dasatinib administered 22 h after the last dose of the PPI): > 40%
- Chills, number of adverse effects ([6]; CTC Grade 1): 1
- Fever, number of adverse effects ([6]; CTC Grade 1): 0
- Headache, number of adverse effects ([6]; CTC Grade 1): 1
- Nausea, number of adverse effects ([6]; CTC Grade 1): 3
- Neck exanthema, number of adverse effects ([6]; CTC Grade 1): 0
- Palmar exanthema, number of adverse effects ([6]; CTC Grade 1): 0
- Vomiting, number of adverse effects ([6]; CTC Grade 1): 1
- Weakness, number of adverse effects ([6]; CTC Grade 1): 2
- Chills, number of adverse effects ([6]; CTC Grade 2): 0
- Fever, number of adverse effects ([6]; CTC Grade 2): 1
- Headache, number of adverse effects ([6]; CTC Grade 2): 6
- Nausea, number of adverse effects ([6]; CTC Grade 2): 1
- Neck exanthema, number of adverse effects ([6]; CTC Grade 2): 1
- Palmar exanthema, number of adverse effects ([6]; CTC Grade 2): 1
- Vomiting, number of adverse effects ([6]; CTC Grade 2): 0
- Weakness, number of adverse effects ([6]; CTC Grade 2): 0

Structure (SMILES): C#Cc1cccc(Nc2ncnc3cc(OCCOC)c(OCCOC)cc23)c1 [erlotinib]
- median progression free survival ([7]; with co-administration of PPI or H2-receptor antagonists, p < 0.001): 1.4 months
- median overall survival ([7]; with co-administration of PPI or H2-receptor antagonists, p = 0.003): 12.9 months
- median overall survival [7, 9]: 16.8 months
- median progression free survival [7, 9]: 2.3 months

Structure (SMILES): O=C1NC(=O)C(c2ccccc2)(c2ccccc2)N1 [phenytoin]
- absolute bioavailability [8]: > 90%
